From US20240299321A1, “METHODS TO SENSITIZE CANCER CELLS AND STANDARDIZED SCREENING ASSAY FOR IMMUNOTHERAPY” (THE TRUSTEES OF INDIANA UNIVERSITY, priority 2020, published 2024)

Columns and labels:
MDA-MB-468 cells = experiment: Gene expression in MDA-MB-468 cells (quantitative RT-PCR); type: cell-based, human; settings: BML-210 1.0 μM, FIG. 4B
EO771 cells = experiment: Gene expression in EO771 cells (RNA-seq, quantitative RT-PCR); type: cell-based, mouse
Method: Quantitative reverse transcription PCR (RT-PCR): Mouse EO771 cells were treated with and without BML-210 drug for 48 h. Total RNA was isolated from the cells using TRIzol (Ambion, Lot: 260808) and the miRNeasy Mini kit (Qiagen, 157029493, Thermo Scientific). The quality of the RNA was quantified by a Nano Drop 2000 spectrophotometer. A total of 1 μg RNA was reverse transcribed into cDNA using the […] superMix reagent (Quantabio, 66141329). Quantitative PCR was performed using SYBR Green […] low Rox reagent (TaKaRa) on a Quantstudio real-time PCR system (ThermoFisher Scientific). RNA sequencing: Total RNA was extracted from EO771 cells using TRIzol (Ambion) and the miRNeasy Mini kit (Qiagen). The quantity and quality of the RNA was evaluated by an Agilent Bioanalyzer 2100. 100 ng of total RNA from each sample was used, from which ribosomal RNA was removed by the QIAseq FastSelect rRNA Removal HMR Kit (Qiagen). The cDNA library was constructed using the KAPA RNA Hyper Prep Kit (Roche Corporate) and the quality was accessed by the Qubit and Agilent Bioanalyzer. The library pool was sequenced in 100b paired-end read format on NovaSeq 6000 (Illumina) at the Center for Medical Genomics, Indiana University School of Medicine (IUSM). RNA-seq analysis: The reads were mapped to the mouse genome mm10 using STAR (v2.5)65. RNA-seq aligner with the following parameter: “--outSAMmapqUnique 60”. Uniquely mapped sequencing reads were assigned to GENCODE M22 genes using feature Counts (v1.6.2)66 with the following parameters: “-s 2 -p -Q 10”. […] The data were visualized with volcano plot using MATLAB. The gene enrichment analysis on DEGs from the Kyoto Encyclopedia of Genes and Genomes (KEGG) pathway database and Gene Ontology database was performed using the Database for Annotation, Visualization and Integrated Discovery (DAVID) functional analysis69. The analysis was visualized using MATLAB with q value (-log 10) and gene number in each GO and pathway. Gene set enrichment analysis (GSEA) of the antigen processing and presentation pathway was carried out with GSEA software70.

Nc1ccccc1NC(=O)CCCCCCC(=O)Nc1ccccc1 [BML-210]
expression of antigen processing and presentation DEGs (qPCR) (MDA-MB-468 cells): most of DEGs had higher expression levels | expression of antigen processing and presentation DEGs (qPCR) (EO771 cells; EO771, BML-210 1.0 μM, FIG. 4A): most of DEGs had higher expression levels | MHC-I genes (H2-D1, H2-K2, B2M), lysosome gene (Lamp1), endosome gene (Hspa8) (EO771 cells; RNA-seq): induced | genome-wide gene expression profile (GO enrichment) (EO771 cells; RNA-seq): upregulation of genes particularly enriched in lysosome, phagosome, antigen processing and presentation pathways
